# System: HSV-1 or HSV-2 infection
# Assay: Treatment of a herpes relapse in patients with medium or severe recurring form (Example 1)
# Type: in vivo
# Conditions: many years of earlier treatment, cream and pills
compound,measurement,value
Nc1nc2c(ncn2COCCO)c(=O)[nH]1 [Aciclovir],reduction of the number of relapses by previously used preparations,did not reduce the number of relapses

# — patent US10080761B2, “Method for treating recurring skin and mucous membrane diseases caused by HSV-1 and HSV-2” (priority 2013, dated 2018)
